Test results: article PMC4598023 (PLoS ONE, 2015)
Bridges are numbered along the chain shown (N, C = ends). Where no end group is shown, it is not given here.

System: MCF–7 cells
Assay: cAMP production in MCF–7 cells following stimulation with amylin and PEGylated amylin
Format: cell-based, human
Conditions: for cAMP: 37°C
Protocol: The assay was conducted by the CRO Eurofins | Cerep Panlabs, using the cAMP HiRange assay kit (Cisbio, 62AM6PE). According to the company, the assay was performed in 96 well half area plates, in a total reaction volume of 20 μl/well, with a total of 3.000 cells in suspension (after optimization for optimal seeding density and format: adherent or suspension), freshly thawed. Cells were incubated at 37°C in a humidified atmosphere with 5% (v/v) CO2. […] Following the incubation, cells were lysed and the cAMP quantified by using the cAMP HiRange assay kit (Cisbio, 62AM6PE) according to the manufacturer instructions. […] After 60 minutes incubation at room temperature, fluorescence was measured (excitation at 337 nm, emission at 620 vs. 665 nm), and the cAMP concentration was determined by dividing the signal at 665 nm by that at 620 nm and comparing with the cAMP calibration curve. Buffer was used as negative control and the results were corrected accordingly. Results are expressed as mean ± standard error (n = 2) of the resulting cAMP concentrations in nM. EC50 values for the agonist-induced cAMP production was calculated by adjusting data with a logist 4 parameter function (with SigmaPlot, Jandel Sci).
MCF–7 cells endogenously express human amylin receptor CTR1 and CTR2 [72, 73]. Stimulation of the receptor with amylin results in the production of cAMP (Fig 5).

Substance: PEGylated human amylin: human amylin monoconjugated at the N-terminal Lys1 region with 5 kDa methoxyl polyethylene glycol succinimidyl carbonate (mPEGsc5k) (KCNTATCATQRLANFLVHSSNNFGAILSSTNVGSNTY-NH2; disulfide 2-7; also: one mPEG 5 kDa (mPEGsc5k) on a Lys1 amino group)
- cAMP (1.00E-05 Molar, replicate 1, 30 min): 53.95 nM
- cAMP (1.00E-05 Molar, replicate 2, 30 min): 47.73 nM
- cAMP (1.00E-06 Molar, replicate 1, 30 min): 47.85 nM
- cAMP (1.00E-06 Molar, replicate 2, 30 min): 54.26 nM
- cAMP (1.00E-07 Molar, replicate 1, 30 min): 38.3 nM
- cAMP (1.00E-07 Molar, replicate 2, 30 min): 36.06 nM
- cAMP (1.00E-08 Molar, replicate 1, 30 min): 17.13 nM
- cAMP (1.00E-08 Molar, replicate 2, 30 min): 22.08 nM
- cAMP (1.00E-09 Molar, replicate 1, 30 min): 5.54 nM
- cAMP (1.00E-09 Molar, replicate 2, 30 min): 6.29 nM
- cAMP (1.00E-10 Molar, replicate 1, 30 min): 3.86 nM
- cAMP (1.00E-10 Molar, replicate 2, 30 min): 4.59 nM
- cAMP (1.00E-11 Molar, replicate 1, 30 min): 4.14 nM
- cAMP (1.00E-11 Molar, replicate 2, 30 min): 3.71 nM
- cAMP (1.00E-12 Molar, replicate 1, 30 min): 4.83 nM
- cAMP (1.00E-12 Molar, replicate 2, 30 min): 5.61 nM
- EC50 (30 min 37°C, HBSS/HEPES pH 7.4, 500 μM IBMX, cAMP HiRange kit, 4 parameter logistic fit, n = 2, done by CRO): 30.8 ± 6.7 nM
